Assay results reported in patent US20210078988A1, “MODULATORS OF INDOLEAMINE 2,3-DIOXYGENASE” (GLAXOSMITHKLINE INTELLECTUAL PROPERTY DEVELOPMENT LIMITED, priority 2017, published 2021).

Biological target: T1, indoleamine 2, 3-dioxygenase (IDO1) (Homo sapiens, UniProt P14902)
T1 construct: human peripheral blood mononuclear cells (PBMC) (PB003F; host or cells: human PBMC stimulated with IFN-gamma and LPS
Test: PBMC IDO1 assay (kynurenine detection via mass spectrometry)
Format: cell-based
Conditions: human PBMC stimulated with IFN-γ and LPS, 2 days, kynurenine by mass spectrometry; read-out: IDO1 PBMC pIC50 (converted)
Outline: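 Kynurenine output, read by RapidFire mass spectrometry as a ratio to internal standard, reflected IDO1 activity in human PBMCs induced with 100 ng/ml IFN-γ plus 50 ng/ml LPS and dosed with compound (11 points, 3-fold) over 2 days. Cytotoxicity was tracked by CellTiter-Glo; XC50 values came from Hill-slope fits.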

T1 sequence (P14902 whole entry): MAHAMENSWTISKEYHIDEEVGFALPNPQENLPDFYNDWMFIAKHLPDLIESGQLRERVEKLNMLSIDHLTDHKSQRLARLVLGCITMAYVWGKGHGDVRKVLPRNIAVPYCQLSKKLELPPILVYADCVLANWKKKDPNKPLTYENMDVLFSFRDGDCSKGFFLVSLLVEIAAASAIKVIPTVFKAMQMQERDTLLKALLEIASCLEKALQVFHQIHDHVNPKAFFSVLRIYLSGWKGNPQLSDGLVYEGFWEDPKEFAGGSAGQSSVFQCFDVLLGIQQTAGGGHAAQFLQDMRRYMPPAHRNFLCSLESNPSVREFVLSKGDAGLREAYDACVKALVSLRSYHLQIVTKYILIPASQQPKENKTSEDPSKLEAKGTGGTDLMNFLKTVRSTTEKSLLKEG

Row | SMILES | IC50
1 | C#CCOc1ccc(C(=O)NC(CC2CCN(C(=O)OC(C)(C)C)CC2)c2ccccc2)cc1 (centres unmarked) [Example 86, tert-butyl 4-(2-phenyl-2-(4-(prop-2-yn-1-yloxy)benzamido)ethyl)piperidine-1-carboxylate] | 20 nM
2 | CCCc1ccc(C(=O)NC(CC2CCN(C(=O)OC(C)(C)C)CC2)c2ccccc2)s1 (centres unmarked) [Example 87, tert-butyl 4-(2-phenyl-2-(5-propylthiophene-2-carboxamido)ethyl)piperidine-1-carboxylate] | 20 nM
3 | CCCOC(=O)N1CCC(CC(NC(=O)c2ccc(Cl)cc2)c2ccccc2)CC1 (centres unmarked) [Example 89, propyl 4-(2-(4-chlorobenzamido)-2-phenylethyl)piperidine-1-carboxylate] | 20 nM
4 | CC(C)(C)OC(=O)N1CCC(CC(NC(=O)c2ccc(Br)cc2)C2CCCCC2)CC1 (centres unmarked) [Example 91, tert-butyl 4-(2-(4-bromobenzamido)-2-cyclohexylethyl)piperidine-1-carboxylate] | 20 nM
5 | Cc1ccc(C(=O)NC(CC2CCN(C(=O)C(F)(F)c3ccccc3)CC2)c2ccccc2)s1 (centres unmarked) [Example 93, N-(2-(1-(2,2-difluoro-2-phenylacetyl)piperidin-4-yl)-1-phenylethyl)-5-methylthiophene-2-carboxamide] | 20 nM
6 | CCCCN(CC)c1nnc(C(CC2CCN(C(=O)OC(C)(C)C)CC2)NC(=O)c2ccc(C)s2)o1 (centres unmarked) [Example 96, tert-butyl 4-(2-(5-(butyl(ethyl)amino)-1,3,4-oxadiazol-2-yl)-2-(5-methylthiophene-2-carboxamido)ethyl)piperidine-1-carboxylate] | 20 nM
7 | CC(C)(C)OC(=O)N1CCC(CC(NC(=O)c2ccc(C3CC3)cc2)c2ccccc2)CC1 (centres unmarked) [Example 97, tert-butyl 4-(2-(4-cyclopropylbenzamido)-2-phenylethyl)piperidine-1-carboxylate] | 25.1 nM
8 | CC(C)(C)OC(=O)N1CCC(CC(NC(=O)c2ccc(C3CC3)s2)c2ccccc2)CC1 (centres unmarked) [Example 98, tert-butyl 4-(2-(5-cyclopropylthiophene-2-carboxamido)-2-phenylethyl)piperidine-1-carboxylate] | 25.1 nM
9 | CC(C)C(CC1CCN(C(=O)OC(C)(C)C)CC1)NC(=O)c1ccc(Cl)s1 (centres unmarked) [Example 99, tert-butyl 4-(2-(5-chlorothiophene-2-carboxamido)-3-methylbutyl)piperidine-1-carboxylate] | 25.1 nM
10 | O=C(NC(CC1CCN(C(=O)OC2CCCC2)CC1)c1ccccc1)c1ccc(Cl)cc1 (centres unmarked) [Example 100, cyclopentyl 4-(2-(4-chlorobenzamido)-2-phenylethyl)piperidine-1-carboxylate] | 25.1 nM
11 | O=C(NC(CC1CCN(C(=O)Oc2ccccc2)CC1)c1ccccc1)c1ccc(Cl)cc1 (centres unmarked) [Example 104, phenyl 4-(2-(4-chlorobenzamido)-2-phenylethyl)piperidine-1-carboxylate] | 25.1 nM
12 | CCc1ccc(C(=O)NC(CC2CCN(C(=O)OC(C)(C)C)CC2)C2CCCCC2)s1 (centres unmarked) [Example 106, tert-butyl 4-(2-cyclohexyl-2-(5-ethylthiophene-2-carboxamido)ethyl)piperidine-1-carboxylate] | 25.1 nM
13 | CCOC(=O)N1CCC(CC(NC(=O)c2ccc(F)cc2)C2CC2)CC1 (centres unmarked) [Example 108, ethyl 4-(2-cyclopropyl-2-(4-fluorobenzamido)ethyl)piperidine-1-carboxylate] | 31.6 nM
14 | COc1ccc(C(=O)NC(CC2CCN(C(=O)OC(C)(C)C)CC2)c2ccccc2)cc1F (centres unmarked) [Example 109, tert-butyl 4-(2-(3-fluoro-4-methoxybenzamido)-2-phenylethyl)piperidine-1-carboxylate] | 31.6 nM
15 | COc1ccc(C(CC2CCN(C(=O)OC(C)(C)C)CC2)NC(=O)c2ccc(SC)cc2)cn1 (centres unmarked) [Example 111, tert-butyl 4-(2-(6-methoxypyridin-3-yl)-2-(4-(methylthio)benzamido)ethyl)piperidine-1-carboxylate] | 31.6 nM
16 | COCCN(C)c1nnc(C(CC2CCN(C(=O)OC(C)(C)C)CC2)NC(=O)c2ccc(Cl)s2)o1 (centres unmarked) [Example 113, tert-butyl 4-(2-(5-chlorothiophene-2-carboxamido)-2-(5-((2-methoxyethyl)(methyl)amino)-1,3,4-oxadiazol-2-yl)ethyl)piperidine-1-carboxylate] | 31.6 nM
17 | CC(C)(C)OC(=O)N1CCC(CC(NC(=O)c2ccc(Cl)s2)C2CCCC2)CC1 (centres unmarked) [Example 115, tert-butyl 4-(2-(5-chlorothiophene-2-carboxamido)-2-cyclopentylethyl)piperidine-1-carboxylate] | 31.6 nM
18 | CCOC(=O)N1CCC(CC(NC(=O)c2ccc(F)cc2)c2ccccc2)CC1 (centres unmarked) [Example 120, ethyl 4-(2-(4-fluorobenzamido)-2-phenylethyl)piperidine-1-carboxylate] | 39.8 nM
19 | O=C(NC(CC1CCN(C(=O)Oc2ccccc2)CC1)c1ccccc1)c1ccc(F)cc1 (centres unmarked) [Example 121, phenyl 4-(2-(4-fluorobenzamido)-2-phenylethyl)piperidine-1-carboxylate] | 39.8 nM

Results, then the compound that gave them:

Row | IC50 | SMILES
20 | 20 nM | CC(C)(C)OC(=O)N1CCC(CC(NC(=O)c2ccc(Cl)c(F)c2)c2ccccc2)CC1 (centres unmarked) [Example 84, tert-butyl 4-(2-(4-chloro-3-fluorobenzamido)-2-phenylethyl)piperidine-1-carboxylate]
21 | 20 nM | CCOC(=O)N1CCC(CC(NC(=O)c2ccc(F)cc2)c2ccc(OC)nc2)CC1 (centres unmarked) [Example 85, ethyl 4-(2-(4-fluorobenzamido)-2-(6-methoxypyridin-3-yl)ethyl)piperidine-1-carboxylate]
22 | 20 nM | CC(C)C(CC1CCN(C(=O)OC(C)(C)C)CC1)NC(=O)c1ccc(Cl)cc1 (centres unmarked) [Example 88, tert-butyl 4-(2-(4-chlorobenzamido)-3-methylbutyl)piperidine-1-carboxylate]
23 | 20 nM | CC(C)(C)OC(=O)N1CCC(C[C@H](NC(=O)c2ccc(Cl)cc2)C2CC2)CC1 [Example 90, (S)-tert-butyl 4-(2-(4-chlorobenzamido)-2-cyclopropylethyl)piperidine-1-carboxylate]
24 | 20 nM | CC(C)(C)OC(=O)N1CCC(CC(NC(=O)c2ccc(F)s2)C2CCCCC2)CC1 (centres unmarked) [Example 92, tert-butyl 4-(2-cyclohexyl-2-(5-fluorothiophene-2-carboxamido)ethyl)piperidine-1-carboxylate]
25 | 20 nM | Cc1ccc(C(=O)NC(CC2CCN(C(=O)C(F)(F)F)CC2)c2ccccc2)s1 (centres unmarked) [Example 94, 5-methyl-N-(1-phenyl-2-(1-(2,2,2-trifluoroacetyl)piperidin-4-yl)ethyl)thiophene-2-carboxamide]
26 | 20 nM | CCC(F)(F)C(=O)N1CCC(CC(NC(=O)c2ccc(C)s2)c2ccccc2)CC1 (centres unmarked) [Example 95, N-(2-(1-(2,2-difluorobutanoyl)piperidin-4-yl)-1-phenylethyl)-5-methylthiophene-2-carboxamide]
27 | 25.1 nM | CC(C)(C)OC(=O)N1CCC(CC(NC(=O)c2ccc(I)c(F)c2)c2ccccc2)CC1 (centres unmarked) [Example 101, tert-butyl 4-(2-(3-fluoro-4-iodobenzamido)-2-phenylethyl)piperidine-1-carboxylate]
28 | 25.1 nM | CCOC(=O)N1CCC(CC(NC(=O)c2ccc(Cl)cc2)c2ccccc2)CC1 (centres unmarked) [Example 102, ethyl 4-(2-(4-chlorobenzamido)-2-phenylethyl)piperidine-1-carboxylate]
29 | 25.1 nM | CC(C)OC(=O)N1CCC(CC(NC(=O)c2ccc(Cl)cc2)c2ccccc2)CC1 (centres unmarked) [Example 103, isopropyl 4-(2-(4-chlorobenzamido)-2-phenylethyl)piperidine-1-carboxylate]
30 | 25.1 nM | O=C(NC(CC1CCN(C(=O)OCC2CC2)CC1)c1ccccc1)c1ccc(Cl)cc1 (centres unmarked) [Example 105, cyclopropylmethyl 4-(2-(4-chlorobenzamido)-2-phenylethyl)piperidine-1-carboxylate]
31 | 31.6 nM | CC(C)(C)OC(=O)N1CCC(CC(NC(=O)c2ccc(F)cc2)c2ccccc2)CC1 (centres unmarked) [Example 107, tert-butyl 4-(2-(4-fluorobenzamido)-2-phenylethyl)piperidine-1-carboxylate]
32 | 31.6 nM | CC(C)(C)OC(=O)N1CCC(CC(NC(=O)c2ccc(C(F)(F)F)cc2)c2ccccc2)CC1 (centres unmarked) [Example 110, tert-butyl 4-(2-phenyl-2-(4-(trifluoromethyl)benzamido)ethyl)piperidine-1-carboxylate]
33 | 31.6 nM | CCN(CC)c1nnc(C(CC2CCN(C(=O)OC(C)(C)C)CC2)NC(=O)c2ccc(F)cc2)o1 (centres unmarked) [Example 112, tert-butyl 4-(2-(5-(diethylamino)-1,3,4-oxadiazol-2-yl)-2-(4-fluorobenzamido)ethyl)piperidine-1-carboxylate]
34 | 31.6 nM | C#CCOc1ccc(C(=O)NC(CC2CCN(C(=O)OC(C)(C)C)CC2)c2ccccc2)cc1F (centres unmarked) [Example 114, tert-butyl 4-(2-(3-fluoro-4-(prop-2-yn-1-yloxy)benzamido)-2-phenylethyl)piperidine-1-carboxylate]
35 | 31.6 nM | CC(C)(C)OC(=O)N1CCC(CC(NC(=O)c2ccc(F)s2)C2CCCC2)CC1 (centres unmarked) [Example 116, tert-butyl 4-(2-cyclopentyl-2-(5-fluorothiophene-2-carboxamido)ethyl)piperidine-1-carboxylate]
36 | 31.6 nM | O=C(NC(CC1CCN(C(=O)OCc2ccccc2)CC1)c1ccccc1)c1ccc(Cl)cc1 (centres unmarked) [Example 117, benzyl 4-(2-(4-chlorobenzamido)-2-phenylethyl)piperidine-1-carboxylate]
37 | 31.6 nM | CCc1ccc(C(=O)NC(CC2CCN(C(=O)OC(C)(C)C)CC2)c2ccccc2)cc1 (centres unmarked) [Example 118, tert-butyl 4-(2-(4-ethylbenzamido)-2-phenylethyl)piperidine-1-carboxylate]
38 | 31.6 nM | C=Cc1ccc(C(=O)NC(CC2CCN(C(=O)OC(C)(C)C)CC2)c2ccccc2)cc1 (centres unmarked) [Example 119, tert-butyl 4-(2-phenyl-2-(4-vinylbenzamido)ethyl)piperidine-1-carboxylate]
